In paper PMC4728661, “Cancer Prevention and Health Benefices of Traditionally Consumed Borago officinalis Plants” (Nutrients, 2016):

Legend:
[1] = system: D. melanogaster; assay: Antigenotoxicity: SMART, combined treatments with H2O2 0.12 M; assay type: in vivo, Drosophila melanogaster; as to Diagnosis, Large Single Spots >2 Cells m = 5: key: + (positive); − (negative); as to Diagnosis, Small Single Spots 1–2 Cells m = 2: key: + (positive); − (negative); as to Diagnosis, Total Spots m = 2: key: + (positive); − (negative); as to Diagnosis, Twin Spots m = 5: key: + (positive); − (negative)
Method: The D. melanogaster system was selected for the determination of the safety of B. officinalis consumption as a well-recognized method to analyze vegetable complex mixtures using SMART [31, 32]. This test was used in order to evaluate the genotoxic and antigenotoxic activity of B. officinalis leaves and petioles as well as their selected bioactive compounds [33]. This activity was measured by direct visualization of the occurrence of recessive mutations in the wing hairs of two different D. melanogaster strains. Flies from experiments carried these visible wing genetic markers: the flare (flr) strain […]) TM3, Bd^s and the multiple wing-hair (mwh) strain […] [35]. The marker flare (flr^3, 3_38.3) produces individual malformed hairs and the marker multiple wing hairs (mwh, 3_0.3) produces multiple hairs per cell. Larvae used in treatments come from two types of crosses: the standard cross with flr^3/TM3, Bd^S females mated to […] and the reciprocal cross. Optimal fertile flies were anesthetized under CO2 narcotisation for cross selection and then placed in new vials for fertilization. After that, hybrid eggs from crossing were collected over an 8 h period and emerged larvae (72 ± 4 h later) were cleaned up for a few seconds in sterile distilled water to remove feeding medium rests. […] Bioactive compound concentrations were chosen on the basis of their known content in B. officinalis species. […] Larvae were fed on these media until pupation (about 48 h). After emergence, resulting adult flies were sacrificed under CO2 narcotisation and stored in a 70% ethanol solution in sterile water. […] For the evaluation of genotoxic effects, the frequencies of spots per fly of each treated series were compared to the concurrent negative control for each class of mutational clone as well as between simple and combined treatments for the same concentration comparisons. […] A multiple-decision procedure was used to categorize results as positive, inconclusive or negative. Inconclusive and positive results were evaluated by the non-parametric U test of Mann, Whitney and Wilcoxon. The inhibition percentage (IP) of genotoxicity was calculated from the total frequencies of spots per wing, following this formula [42]: IP = (genotoxin alone - sample + genotoxin) × 100/(genotoxin alone)(2) Significant differences of IP for each treatment respect to the positive control were analyzed with a Chi-square test.

[2] = Cytotoxicity: HL-60 growth/viability, Trypan Blue dye exclusion; assay type: cell-based, human; settings: human, HL-60 cells (acute promyelocytic leukemia); HL-60, 72 h treatment, Trypan Blue; read-out: IC50 (cytotoxic effect)
Method: The human acute promyelocytic leukemia cell line HL-60 was routinely grown in suspension in RPMI medium (Invitrogen, Madrid, Spain) containing glutamine ([…], Sigma-Aldrich, St. Louis, MO, USA), antibiotics (100IU penicillin mL^−1 and 100 μg streptomycin mL^−1, Sigma-Aldrich) and supplemented with 10% heat-inactivated foetal bovine serum (Linus, Cultek, Madrid, Spain) and placed in an incubator (Shel Lab, Cornelious, OR, USA) with a 5% CO2 humidified atmosphere at 37 °C [36]. HL-60 cells were subcultured every 2–3 days to maintain logarithmic growth and they were allowed to grow for 48 h before use. Cultures were plated at a density of 12.5 × 10^4 cells mL^−1 in 40 mL culture flasks (25 cm^2). Cytotoxic activity was measured as growing inhibition or decreased viability on HL-60 cells following a previous protocol modified by us. […] Cells were counted after 72 h treatment. Tested concentrations were calculated according to those used for in vivo assays to equal the range of tested doses. Untreated cultures were used as negative control. Cell viability was determined by the Trypan Blue dye exclusion test. Cells were stained with an equal volume of Trypan Blue commercial solution (Sigma-Aldrich) and counted using a hemocytometer at room temperature under a light inverted microscope (AE30/31, Motic, Barcelona, Spain). Cytotoxic effect evaluation was determined after each culture incubation period, establishing a growth curve and determining IC50 values by regression analysis of the curves. Viability estimated regressions of leukemia cells are presented as a survival percentage with respect to controls at 72 h growth and plotted as mean viability ± standard error of at least three independent replicas for each treatment and concentration.

[3] = system: rats; design: method as in PMID 16026713; settings: doses of 2 and 8 mg·kg^−1, brain tissue and peripheral blood; cited from earlier work
[4] = system: V79 cell line; design: method as in doi:10.3389/conf.fgene.2015.01.0004; settings: dose dependent, concentrations below 2 mM reduce DNA damage; cited from earlier work
[5] = system: HL-60 cells; design: method as in PMID 19067382; settings: SY in extracts of Elaphomyces granulates, concentrations up to ~31 µg·mL^−1; cited from earlier work
[6] = system: HL-60 cell; settings: 0.1 mM in cell medium; cited from earlier work
[7] = combined with 0.12 M H2O2, 0.35 mM RO
[8] = combined with 0.12 M H2O2, 0.7 mM RO
[9] = combined with 0.12 M H2O2, 1.39 mM RO
[10] = combined with 0.12 M H2O2, 2.78 mM RO
[11] = combined with 0.12 M H2O2, 0.15 mM SI
[12] = combined with 0.12 M H2O2, 0.29 mM SI
[13] = combined with 0.12 M H2O2, 0.58 mM SI
[14] = combined with 0.12 M H2O2, 1.16 mM SI
[15] = combined with 0.12 M H2O2, 0.16 mM SY
[16] = combined with 0.12 M H2O2, 0.32 mM SY
[17] = combined with 0.12 M H2O2, 0.63 mM SY
[18] = combined with 0.12 M H2O2, 1.26 mM SY

Q: With O=C(/C=C/c1ccc(O)c(O)c1)O[C@H](Cc1ccc(O)c(O)c1)C(=O)O [RO, rosmarinic acid] as the compound, how does the “Diagnosis, Small Single Spots 1–2 Cells m = 2” value [1, 7] read?
A: −

Q: And the “Diagnosis, Total Spots m = 2” value [1, 7]?
A: −

Q: What about the “Mutation rate, Large Single Spots >2 Cells m = 5” value [1, 7] of the same compound?
A: 0 spots/wing

Q: What about the “Mutation rate, Small Single Spots 1–2 Cells m = 2” value [1, 7] of the same compound?
A: 0.17 (5) spots/wing

Q: What about the “Mutation rate, Total Spots m = 2” value [1, 7] of the same compound?
A: 0.17 (5) spots/wing

Q: What about the “Mutation rate, Twin Spots m = 5” value [1, 7] of the same compound?
A: 0 spots/wing

Q: And the “Diagnosis, Large Single Spots >2 Cells m = 5” value [1, 8]?
A: −

Q: What about the “Diagnosis, Small Single Spots 1–2 Cells m = 2” value [1, 8] of the same compound?
A: −

Q: What about the “Diagnosis, Total Spots m = 2” value [1, 8] of the same compound?
A: −

Q: What about the “Diagnosis, Twin Spots m = 5” value [1, 8] of the same compound?
A: −

Q: What about the “Mutation rate, Large Single Spots >2 Cells m = 5” value [1, 8] of the same compound?
A: 0.08 (3) spots/wing

Q: What about the “Mutation rate, Small Single Spots 1–2 Cells m = 2” value [1, 8] of the same compound?
A: 0.35 (14) spots/wing

Q: And the “Mutation rate, Total Spots m = 2” value [1, 8]?
A: 0.45 (18) spots/wing

Q: What about the “Mutation rate, Twin Spots m = 5” value [1, 8] of the same compound?
A: 0.03 (1) spots/wing

Q: And the “Diagnosis, Large Single Spots >2 Cells m = 5” value [1, 9]?
A: −

Q: And the “Diagnosis, Small Single Spots 1–2 Cells m = 2” value [1, 9]?
A: −

Q: And the “Diagnosis, Total Spots m = 2” value [1, 9]?
A: −

Q: What about the “Mutation rate, Large Single Spots >2 Cells m = 5” value [1, 9] of the same compound?
A: 0.14 (3) spots/wing

Q: And the “Mutation rate, Small Single Spots 1–2 Cells m = 2” value [1, 9]?
A: 0.14 (3) spots/wing

Q: What about the “Mutation rate, Total Spots m = 2” value [1, 9] of the same compound?
A: 0.27 (6) spots/wing

Q: What about the “Mutation rate, Twin Spots m = 5” value [1, 9] of the same compound?
A: 0 spots/wing

Q: What about the “Diagnosis, Small Single Spots 1–2 Cells m = 2” value [1, 10] of the same compound?
A: −

Q: What about the “Diagnosis, Total Spots m = 2” value [1, 10] of the same compound?
A: −

Q: What about the “Diagnosis, Twin Spots m = 5” value [1, 10] of the same compound?
A: −

Q: What about the “Mutation rate, Large Single Spots >2 Cells m = 5” value [1, 10] of the same compound?
A: 0 spots/wing

Q: What about the “Mutation rate, Small Single Spots 1–2 Cells m = 2” value [1, 10] of the same compound?
A: 0.21 (11) spots/wing

Q: What about the “Mutation rate, Total Spots m = 2” value [1, 10] of the same compound?
A: 0.25 (13) spots/wing

Q: And the “Mutation rate, Twin Spots m = 5” value [1, 10]?
A: 0.04 (2) spots/wing

Q: What about the IC50 at 72 h [2] of the same compound?
A: 70 µM

Q: And the “Genotoxic effect, comet assay” value [3]?
A: no genotoxic effect

Q: Which “Diagnosis, Small Single Spots 1–2 Cells m = 2” value [1, 11] does the source give for COc1cc(/C=C/C(=O)O)cc(OC)c1O [SI, sinapic acid] here?
A: −

Q: And the “Diagnosis, Total Spots m = 2” value [1, 11]?
A: −

Q: What about the “Mutation rate, Large Single Spots >2 Cells m = 5” value [1, 11] of the same compound?
A: 0 spots/wing

Q: And the “Mutation rate, Small Single Spots 1–2 Cells m = 2” value [1, 11]?
A: 0.42 (5) spots/wing

Q: And the “Mutation rate, Total Spots m = 2” value [1, 11]?
A: 0.42 (5) spots/wing

Q: And the “Mutation rate, Twin Spots m = 5” value [1, 11]?
A: 0 spots/wing

Q: And the “Diagnosis, Small Single Spots 1–2 Cells m = 2” value [1, 12]?
A: −

Q: What about the “Diagnosis, Total Spots m = 2” value [1, 12] of the same compound?
A: −

Q: What about the “Mutation rate, Large Single Spots >2 Cells m = 5” value [1, 12] of the same compound?
A: 0 spots/wing

Q: What about the “Mutation rate, Small Single Spots 1–2 Cells m = 2” value [1, 12] of the same compound?
A: 0.25 (2) spots/wing

Q: What about the “Mutation rate, Total Spots m = 2” value [1, 12] of the same compound?
A: 0.25 (2) spots/wing

Q: And the “Mutation rate, Twin Spots m = 5” value [1, 12]?
A: 0 spots/wing

Q: And the “Diagnosis, Large Single Spots >2 Cells m = 5” value [1, 13]?
A: −

Q: What about the “Diagnosis, Small Single Spots 1–2 Cells m = 2” value [1, 13] of the same compound?
A: −

Q: And the “Diagnosis, Total Spots m = 2” value [1, 13]?
A: −

Q: And the “Diagnosis, Twin Spots m = 5” value [1, 13]?
A: −

Q: And the “Mutation rate, Large Single Spots >2 Cells m = 5” value [1, 13]?
A: 0.09 (2) spots/wing

Q: What about the “Mutation rate, Small Single Spots 1–2 Cells m = 2” value [1, 13] of the same compound?
A: 0.27 (6) spots/wing

Q: What about the “Mutation rate, Total Spots m = 2” value [1, 13] of the same compound?
A: 0.41 (9) spots/wing

Q: What about the “Mutation rate, Twin Spots m = 5” value [1, 13] of the same compound?
A: 0.05 (1) spots/wing

Q: What about the “Diagnosis, Large Single Spots >2 Cells m = 5” value [1, 14] of the same compound?
A: −

Q: And the “Diagnosis, Small Single Spots 1–2 Cells m = 2” value [1, 14]?
A: −

Q: And the “Diagnosis, Total Spots m = 2” value [1, 14]?
A: −

Q: What about the “Mutation rate, Large Single Spots >2 Cells m = 5” value [1, 14] of the same compound?
A: 0.04 (1) spots/wing

Q: What about the “Mutation rate, Small Single Spots 1–2 Cells m = 2” value [1, 14] of the same compound?
A: 0.25 (7) spots/wing

Q: What about the “Mutation rate, Total Spots m = 2” value [1, 14] of the same compound?
A: 0.29 (8) spots/wing

Q: And the “Mutation rate, Twin Spots m = 5” value [1, 14]?
A: 0 spots/wing

Q: And the Genotoxic/antigenotoxic activity [4]?
A: antigenotoxic

Q: Which results are given for COc1cc(C(=O)O)cc(OC)c1O [SY, syringic acid]?
A: Diagnosis, Small Single Spots 1–2 Cells m = 2 [1, 15]: −; Diagnosis, Total Spots m = 2 [1, 15]: −; Mutation rate, Large Single Spots >2 Cells m = 5 [1, 15]: 0 spots/wing; Mutation rate, Small Single Spots 1–2 Cells m = 2 [1, 15]: 0.23 (5) spots/wing; Mutation rate, Total Spots m = 2 [1, 15]: 0.23 (5) spots/wing; Mutation rate, Twin Spots m = 5 [1, 15]: 0 spots/wing; Diagnosis, Small Single Spots 1–2 Cells m = 2 [1, 16]: −; Diagnosis, Total Spots m = 2 [1, 16]: −; Mutation rate, Large Single Spots >2 Cells m = 5 [1, 16]: 0 spots/wing; Mutation rate, Small Single Spots 1–2 Cells m = 2 [1, 16]: 0.30 (3) spots/wing; Mutation rate, Total Spots m = 2 [1, 16]: 0.30 (3) spots/wing; Mutation rate, Twin Spots m = 5 [1, 16]: 0 spots/wing; Diagnosis, Small Single Spots 1–2 Cells m = 2 [1, 17]: −; Diagnosis, Total Spots m = 2 [1, 17]: −; Mutation rate, Large Single Spots >2 Cells m = 5 [1, 17]: 0 spots/wing; Mutation rate, Small Single Spots 1–2 Cells m = 2 [1, 17]: 0.28 (9) spots/wing; Mutation rate, Total Spots m = 2 [1, 17]: 0.28 (9) spots/wing; Mutation rate, Twin Spots m = 5 [1, 17]: 0 spots/wing; Diagnosis, Small Single Spots 1–2 Cells m = 2 [1, 18]: −; Diagnosis, Total Spots m = 2 [1, 18]: −; Mutation rate, Large Single Spots >2 Cells m = 5 [1, 18]: 0 spots/wing; Mutation rate, Small Single Spots 1–2 Cells m = 2 [1, 18]: 0.32 (7) spots/wing; Mutation rate, Total Spots m = 2 [1, 18]: 0.32 (7) spots/wing; Mutation rate, Twin Spots m = 5 [1, 18]: 0 spots/wing; Cytotoxic effect in HL-60 [5]: no cytotoxic effect; Apoptosis induction in HL-60 [6]: did not induce apoptosis
